The record followed here is US20240254139A1, “FUSED ISOXAZOLYL COMPOUNDS AS KAT6A INHIBITORS” (Aurigene Oncology Limited, priority 2021, published 2024).

This test addresses T1, human-KAT6A (MYST domain 507-778 aa) (Homo sapiens, UniProt Q92794).
T1 construct: human-KAT6A (MYST domain 507-778 aa)
Kind of test: KAT6A biochemical assay (TR-FRET). The conditions noted are these: for inhibition at 1 µM: compound at 1 μM, percent inhibition of internal assay controls; for IC50: dose-response, sigmoidal curve fit, groups A, B, C. An excerpt: A TR-FRET based method was used for assaying compounds of the invention for KAT6A enzyme inhibitory activity. TR-FRET is homogeneous proximity assay where Europium-labelled anti-acetyl lysine antibody binds to the acetylated substrate labelled with biotin which in turn binds to streptavidin labelled APC fluorescence acceptor. Europium can transfer energy to APC in the complex and the interaction of two dye-labelled binding partners is detected by the energy transfer between a donor and an acceptor dye, and the subsequent light emission by the acceptor dye. KAT6A transfer an acetyl group from acetyl CoA to lysine amino acids of histones/target proteins. Typically, 5 μL of human-KAT6A (MYST domain 507-778 aa) in assay buffer (100 mM Tris HCl (pH 7.8), 15 mM NaCl, 1 mM EDTA, 0.01% Tween-20, 0.02% BSA, 1 mM DTT) is added to a 384-well plate containing 5 μL of selected test compound in final 1% DMSO, serially diluted in 1:3 in an 8-10-point titration. The selected compound of the present invention and enzyme are incubated for 30 min at room temperature. Next, 5 μL of substrate mix containing histone H4 peptide and acetyl-CoA in assay buffer is added to the plate. The final concentrations of H4 peptide and acetyl-CoA are 200 nM and 600 nM respectively. Following 30 min reaction at room temperature, 5 μL of detection mix containing Europium labelled anti-acetyl antibody and streptavidin-APC is added to the reaction wells. Plate is further incubated for 45 min at room temperature and is read in TR-FRET mode (Ex: 340 nm; Em: 615 nm and 665 nm) on a plate reader.
Selected compounds of the present invention were screened in the above-mentioned assay procedure and IC50 values were determined by fitting the dose-response data to sigmoidal curve fitting equation using Graph pad prism software V8. […]

T1 sequence (Q92794 507-778): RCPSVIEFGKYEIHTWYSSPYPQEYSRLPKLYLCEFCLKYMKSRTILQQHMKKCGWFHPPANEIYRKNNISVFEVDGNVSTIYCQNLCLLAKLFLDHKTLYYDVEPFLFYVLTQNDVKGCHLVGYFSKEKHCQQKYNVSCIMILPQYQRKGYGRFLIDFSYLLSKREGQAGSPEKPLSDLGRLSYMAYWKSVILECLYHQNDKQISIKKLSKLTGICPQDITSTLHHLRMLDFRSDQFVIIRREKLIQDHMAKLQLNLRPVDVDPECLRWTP

`COc1cccc(OC)c1S(=O)(=O)Nc1noc2ncncc12` [Compound 20, N-(isoxazolo[5,4-d]pyrimidin-3-yl)-2,6-dimethoxybenzenesulfonamide] came in with an inhibition at 1 µM of 14%.

The molecule `COc1cc(-c2ccccc2)nc2onc(NS(=O)(=O)c3c(F)cccc3F)c12` [Compound 25, 2,6-difluoro-N-(4-methoxy-6-phenylisoxazolo[5,4-b]pyridin-3-yl)benzenesulfonamide] returned an inhibition at 1 µM of 30%.

In turn, `COc1cccc(OC)c1S(=O)(=O)Nc1noc2nc(N3CC(F)(F)C3)cc(OC)c12` [Compound 28, N-(6-(3,3-difluoroazetidin-1-yl)-4-methoxyisoxazolo[5,4-b]pyridin-3-yl)-2,6-dimethoxybenzenesulfonamide] yielded an inhibition at 1 µM of 80% and an IC50 of over 0.2 µM.

`COc1cccc(OC)c1S(=O)(=O)Nc1noc2nc(N3CCCC3)cc(OC)c12` [Compound 13, 2,6-dimethoxy-N-(4-methoxy-6-(pyrrolidin-1-yl)isoxazolo[5,4-b]pyridin-3-yl)benzenesulfonamide] returned an inhibition at 1 µM of 97% and an IC50 of 0.11 to 0.2 µM.

`COc1cccc(OC)c1S(=O)(=O)Nc1noc2nc(C3=CCCC3)cc(OC)c12` [Compound 32, N-(6-(cyclopent-1-en-1-yl)-4-methoxyisoxazolo[5,4-b]pyridin-3-yl)-2,6-dimethoxybenzenesulfonamide] displayed an IC50 of 0.11 to 0.2 µM.

`COc1cccc(OC)c1S(=O)(=O)Nc1noc2cnccc12` [Compound 21, N-(isoxazolo[5,4-c]pyridin-3-yl)-2,6-dimethoxybenzenesulfonamide] gave an inhibition at 1 µM of 11%.

Turning to `COc1cc(-c2ccccc2)nc2onc(NS(=O)(=O)c3ccccc3OC(F)(F)F)c12` [Compound 7, N-(4-methoxy-6-phenylisoxazolo[5,4-b]pyridin-3-yl)-2-(trifluoromethoxy)benzenesulfonamide], at 1 µM the inhibition was 25%.

Take `COc1cccc(OC)c1S(=O)(=O)Nc1noc2nc(N(C)C)cc(OC)c12` [Compound 15, N-(6-(dimethylamino)-4-methoxyisoxazolo[5,4-b]pyridin-3-yl)-2,6-dimethoxybenzenesulfonamide]: testing at 1 µM gave an inhibition of 59% and the half-inhibitory concentration (IC50) was over 0.2 µM.

On to `COc1cccc(OC)c1S(=O)(=O)Nc1noc2nc(-c3ccccc3)nc(OC)c12` [Compound 2, 2,6-dimethoxy-N-(4-methoxy-6-phenylisoxazolo[5,4-d]pyrimidin-3-yl)benzenesulfonamide], for which at 1 µM the inhibition was 100% and the IC50 is under 0.1 µM.

The molecule `COc1cccc(OC)c1S(=O)(=O)Nc1noc2nc(Cn3cccn3)cc(OC)c12` [Compound 35, N-(6-((1H-pyrazol-1-yl)methyl)-4-methoxyisoxazolo[5,4-b]pyridin-3-yl)-2,6-dimethoxybenzenesulfonamide] displayed an IC50 of over 0.2 µM.

As for `COc1cccc(OC)c1S(=O)(=O)Nc1noc2cc(-c3ccccc3)cnc12` [Compound 6, 2,6-dimethoxy-N-(6-phenylisoxazolo[4,5-b]pyridin-3-yl)benzenesulfonamide], where the note is “compound at 10 μM (stated in the cell), read-out: Percent Inhibition (at 10 μM)”, the inhibition at 10 µM is 58%.

The molecule `COc1cccc(OC)c1S(=O)(=O)Nc1noc2nc(N3CCC(OC)C3)cc(OC)c12` (stereo not drawn) [Compound 19, 2,6-dimethoxy-N-(4-methoxy-6-(3-methoxypyrrolidin-1-yl)isoxazolo[5,4-b]pyridin-3-yl)benzenesulfonamide] came in with an inhibition at 1 µM of 92% and an IC50 of 0.11 to 0.2 µM.

Regarding `COc1cccc(OC)c1S(=O)(=O)Nc1noc2nc(N3CCC(F)(F)C3)cc(OC)c12` [Compound 18, N-(6-(3,3-difluoropyrrolidin-1-yl)-4-methoxyisoxazolo[5,4-b]pyridin-3-yl)-2,6-dimethoxybenzenesulfonamide], testing at 1 µM gave an inhibition of 100% and the IC50 is under 0.1 µM.

`COc1cccc(OC)c1S(=O)(=O)Nc1noc2nc(N3CCCCC3)cc(OC)c12` [Compound 12, 2,6-dimethoxy-N-(4-methoxy-6-(piperidin-1-yl)isoxazolo[5,4-b]pyridin-3-yl)benzenesulfonamide] returned an inhibition at 1 µM of 54%.

As for `CCN(Cc1ccc(OC)cc1)c1cc(OC)c2c(NS(=O)(=O)c3c(OC)cccc3OC)noc2n1` [Compound 30, N-(6-(ethyl(4-methoxybenzyl)amino)-4-methoxyisoxazolo[5,4-b]pyridin-3-yl)-2,6-dimethoxybenzenesulfonamide], the inhibition at 1 µM worked out at 56%.

In turn, `COc1cccc(OC)c1S(=O)(=O)Nc1noc2ncccc12` [Compound 24, N-(isoxazolo[5,4-b]pyridin-3-yl)-2,6-dimethoxybenzenesulfonamide] yielded an inhibition at 1 µM of 13%.

For `COc1cccc(OC)c1S(=O)(=O)Nc1noc2nccnc12` [Compound 22, N-(isoxazolo[4,5-b]pyrazin-3-yl)-2,6-dimethoxybenzenesulfonamide], the inhibition at 1 µM came out at 12%.

For `COc1cc(-c2ccccc2)nc2onc(NS(=O)(=O)c3ccccc3F)c12` [Compound 26, 2-fluoro-N-(4-methoxy-6-phenylisoxazolo[5,4-b]pyridin-3-yl)benzenesulfonamide], testing at 1 µM gave an inhibition of 23%.

`COc1ccccc1S(=O)(=O)Nc1noc2nc(-c3ccccc3)cc(OC)c12` [Compound 8, 2-methoxy-N-(4-methoxy-6-phenylisoxazolo[5,4-b]pyridin-3-yl)benzenesulfonamide]: the inhibition at 1 µM amounted to 82% and the IC50 fell in the range of 0.11 to 0.2 µM.

`CCNc1cc(OC)c2c(NS(=O)(=O)c3c(OC)cccc3OC)noc2n1` [Compound 38, N-(6-(ethylamino)-4-methoxyisoxazolo[5,4-b]pyridin-3-yl)-2,6-dimethoxybenzenesulfonamide] registered an inhibition at 1 µM of 95%.

`CCc1ccc(OC)c(S(=O)(=O)Nc2noc3nc(-c4ccccc4)cc(OC)c23)c1` [Compound 33, 5-ethyl-2-methoxy-N-(4-methoxy-6-phenylisoxazolo[5,4-b]pyridin-3-yl)benzenesulfonamide] displayed an IC50 of under 0.1 µM.

`COc1cc(-c2ccccc2)nc2onc(NS(=O)(=O)c3ccccc3-c3ccccc3)c12` [Compound 5, N-(4-methoxy-6-phenylisoxazolo[5,4-b]pyridin-3-yl)-[1,1′-biphenyl]-2-sulfonamide] displayed an inhibition at 1 µM of 52% and an IC50 of under 0.1 µM.

Turning to `COc1ccc(CN(C)c2cc(OC)c3c(NS(=O)(=O)c4c(OC)cccc4OC)noc3n2)cc1` [Compound 29, 2,6-dimethoxy-N-(4-methoxy-6-((4-methoxybenzyl)(methyl)amino)isoxazolo[5,4-b]pyridin-3-yl)benzenesulfonamide], testing at 1 µM gave an inhibition of 38%.

Consider `CCOc1ccccc1S(=O)(=O)Nc1noc2nc(-c3ccccc3)cc(OC)c12` [Compound 9, 2-ethoxy-N-(4-methoxy-6-phenylisoxazolo[5,4-b]pyridin-3-yl)benzenesulfonamide], for which the inhibition at 1 µM worked out at 62% and the IC50 was over 0.2 µM.

As to `COc1cccc(OC)c1S(=O)(=O)Nc1noc2cc(-c3ccccc3)nc(OC)c12` [Compound 3, 2,6-dimethoxy-N-(4-methoxy-6-phenylisoxazolo[4,5-c]pyridin-3-yl)benzenesulfonamide], the inhibition at 1 µM came out at 96% and the IC50 was in the range of 0.11 to 0.2 µM.

As to `COc1cccc(OC)c1S(=O)(=O)Nc1noc2nc(N3CC(OC)C3)cc(OC)c12` [Compound 17, 2,6-dimethoxy-N-(4-methoxy-6-(3-methoxyazetidin-1-yl)isoxazolo[5,4-b]pyridin-3-yl)benzenesulfonamide], 1 µM produced 100% inhibition and the IC50 was in the range of 0.11 to 0.2 µM.

As for `COc1cccc(OC)c1S(=O)(=O)Nc1noc2cc(-c3ccccc3)n(C)c(=O)c12` [Compound 4, 2,6-dimethoxy-N-(5-methyl-4-oxo-6-phenyl-4,5-dihydroisoxazolo[4,5-c]pyridin-3-yl)benzenesulfonamide], the inhibition at 1 µM came out at 23%.

Regarding `COc1cccc(OC)c1S(=O)(=O)Nc1noc2nc(N3CCC3)cc(OC)c12` [Compound 16, N-(6-(azetidin-1-yl)-4-methoxyisoxazolo[5,4-b]pyridin-3-yl)-2,6-dimethoxybenzenesulfonamide], the inhibition at 1 µM amounted to 100% and the half-maximal inhibitory concentration (IC50) fell in the range of 0.11 to 0.2 µM.

In turn, `COc1cccc(OC)c1S(=O)(=O)Nc1noc2nc(N(C)C3CCCCC3)cc(OC)c12` [Compound 27, N-(6-(cyclohexyl(methyl)amino)-4-methoxyisoxazolo[5,4-b]pyridin-3-yl)-2,6-dimethoxybenzenesulfonamide] registered an inhibition at 1 µM of 17%.

Turning to `COc1cccc(OC)c1S(=O)(=O)N(C)c1noc2nc(-c3ccccc3)cc(OC)c12` [Compound 36, 2,6-dimethoxy-N-(4-methoxy-6-phenylisoxazolo[5,4-b]pyridin-3-yl)-N-methylbenzenesulfonamide], the inhibition at 1 µM is 0%.
